Laboratory results as given in ChEMBL document CHEMBL1201862, “PubChem BioAssay data set” (2004).
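Following 48 hours of exposure in 96-well plates, responses at five concentrations were used to interpolate endpoints linearly. The concentration for 50% growth inhibition is given as GI50.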 Active and inactive are the calls of the source. No stated cut-off is given here; in the data, active = GI50 up to about 1.1 µM and inactive = higher.

How the values were obtained:
Experiment in all cases: NCI anticancer screen, dose series, 48 h
COLO 205 = system: COLO 205
NCI-H522 = system: NCI-H522
KM12 = system: KM12
RPMI-8226 = system: RPMI-8226
U-251 = system: U-251
HCC 2998 = system: HCC 2998
UACC-257 = system: UACC-257
NCI-H460 = system: NCI-H460
SNB-19 = system: SNB-19
SNB-75 = system: SNB-75
HCT-116 = system: HCT-116
K562 = system: K562
OVCAR-3 = system: OVCAR-3
BT-549 = system: BT-549
MCF7 = system: MCF7
SW-620 = system: SW-620
A549 = system: A549
ACHN = system: ACHN
UACC-62 = system: UACC-62
HOP-92 = system: HOP-92

Measured: GI50

CC(Br)C(=O)NN1C2=C(Nc3ccccc31)c1cccc3cccc2c13 (stereo not given)
inactive: COLO 205 75.5 µM | NCI-H522 92 µM | KM12 > 100 µM | RPMI-8226 48.4 µM | U-251 41.5 µM | HCC 2998 13.5 µM | UACC-257 48.2 µM | NCI-H460 49.4 µM | SNB-19 > 100 µM | SNB-75 40.9 µM | HCT-116 > 100 µM | K562 > 100 µM | OVCAR-3 49.3 µM | BT-549 > 100 µM | MCF7 34.5 µM | SW-620 > 100 µM | A549 57.9 µM | ACHN 31.2 µM

CC(C)(C)OCC1NC(=O)[C@@H]2Cc3c([nH]c4ccccc34)C(C3CCCCC3)N2C1=O (stereo not given in full)
inactive: COLO 205 20.7 µM | NCI-H522 16.5 µM | UACC-62 14.9 µM | KM12 17.8 µM | RPMI-8226 19.8 µM | HOP-92 22.1 µM | U-251 20.4 µM | UACC-257 18.4 µM | SNB-19 37.3 µM | HCT-116 15.3 µM | K562 27.3 µM | OVCAR-3 11.6 µM | BT-549 20.9 µM | MCF7 31.6 µM | SW-620 25.3 µM | A549 33.7 µM | ACHN 27 µM

COC(=O)[C@@](C)(COC(=O)C(C)(C)C)NC(=O)OC(C)(C)C
inactive: COLO 205 > 100 µM | NCI-H522 > 100 µM | UACC-62 > 100 µM | KM12 > 100 µM | RPMI-8226 > 100 µM | U-251 > 100 µM | HCC 2998 > 100 µM | UACC-257 > 100 µM | NCI-H460 > 100 µM | SNB-19 > 100 µM | SNB-75 > 100 µM | HCT-116 > 100 µM | K562 > 100 µM | BT-549 > 100 µM | MCF7 > 100 µM | SW-620 > 100 µM | A549 > 100 µM | ACHN > 100 µM

O=C(Sc1n[nH]c(=O)[nH]c1=O)c1cccc2nc3ccccc3nc12
inactive: COLO 205 2.44 µM | UACC-62 38.8 µM | KM12 39 µM | RPMI-8226 78.5 µM | HOP-92 > 100 µM | U-251 > 100 µM | HCC 2998 27.9 µM | UACC-257 13.2 µM | NCI-H460 8.63 µM | SNB-19 > 100 µM | HCT-116 > 100 µM | K562 47.9 µM | OVCAR-3 50 µM | BT-549 8.36 µM | MCF7 7.67 µM | SW-620 41.2 µM | A549 4.05 µM | ACHN 30.2 µM

Cc1ccc(C(C2C(=O)N(C)C(=O)N(C)C2=O)C(F)(F)C(=O)N(C)C)cc1 (stereo not given)
inactive: COLO 205 > 100 µM | UACC-62 > 100 µM | KM12 > 100 µM | RPMI-8226 > 100 µM | HOP-92 > 100 µM | U-251 > 100 µM | HCC 2998 > 100 µM | UACC-257 > 100 µM | NCI-H460 > 100 µM | SNB-19 > 100 µM | SNB-75 > 100 µM | HCT-116 > 100 µM | OVCAR-3 > 100 µM | BT-549 > 100 µM | MCF7 > 100 µM | SW-620 > 100 µM | A549 > 100 µM | ACHN > 100 µM

O=C(CC(C(=O)c1ccoc1)c1ccco1)c1ccco1 (stereo not given)
inactive: COLO 205 > 100 µM | NCI-H522 > 100 µM | UACC-62 > 100 µM | KM12 57 µM | RPMI-8226 > 100 µM | HOP-92 > 100 µM | U-251 > 100 µM | HCC 2998 > 100 µM | UACC-257 > 100 µM | NCI-H460 > 100 µM | SNB-75 > 100 µM | HCT-116 > 100 µM | K562 > 100 µM | OVCAR-3 > 100 µM | MCF7 > 100 µM | SW-620 > 100 µM | A549 79.6 µM | ACHN > 100 µM

COc1ccccc1NC(=S)NNC(=O)c1cc(-c2ccccc2)nc2ccccc12
inactive: COLO 205 11.8 µM | NCI-H522 12.9 µM | UACC-62 5.86 µM | KM12 7.01 µM | RPMI-8226 6.97 µM | HOP-92 12.8 µM | U-251 9.59 µM | HCC 2998 13.6 µM | UACC-257 18.2 µM | NCI-H460 13.2 µM | SNB-19 24.5 µM | SNB-75 18.7 µM | HCT-116 6.22 µM | K562 6.97 µM | OVCAR-3 4.45 µM | BT-549 8.26 µM | SW-620 7.76 µM | A549 8.55 µM | ACHN 17.7 µM

COc1cc([N+](=O)[O-])cc2c1NC(=O)C2(C)SC (stereo not given)
inactive: COLO 205 > 100 µM | NCI-H522 > 100 µM | UACC-62 96.8 µM | KM12 > 100 µM | RPMI-8226 > 100 µM | U-251 > 100 µM | HCC 2998 > 100 µM | UACC-257 > 100 µM | NCI-H460 > 100 µM | SNB-19 > 100 µM | SNB-75 38.2 µM | HCT-116 36.7 µM | K562 34.4 µM | OVCAR-3 77.3 µM | BT-549 > 100 µM | MCF7 79.4 µM | SW-620 69 µM | A549 > 100 µM | ACHN > 100 µM
